One series deals with T1, MliILTPS1 (Melampsora lini, UniProt A0A858E7J4).
T1 construct: gene ILTPS1; full-length synthesized cDNA in pET-32a, N-terminal His-tag, E. coli BL21(DE3) pLysS
T1 sequence (A0A858E7J4 1-329): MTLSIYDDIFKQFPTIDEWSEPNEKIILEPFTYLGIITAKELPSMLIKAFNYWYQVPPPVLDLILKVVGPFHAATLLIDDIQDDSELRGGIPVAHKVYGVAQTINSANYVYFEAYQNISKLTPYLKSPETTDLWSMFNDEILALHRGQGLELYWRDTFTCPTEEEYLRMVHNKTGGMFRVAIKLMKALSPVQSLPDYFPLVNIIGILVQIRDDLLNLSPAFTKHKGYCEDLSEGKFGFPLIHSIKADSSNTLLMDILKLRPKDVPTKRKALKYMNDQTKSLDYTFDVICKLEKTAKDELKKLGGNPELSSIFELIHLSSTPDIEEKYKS
Kind of series: in vitro terpene synthase assay, SPME GC-MS. In kind it is biochemical. To be noted: room temperature, 60 min.

The next series has as its target T2, MlpILTPS2 (Melampsora laricis-populina, UniProt A0A858E4Y6).
T2 construct: gene ILTPS2; full-length cDNA from infected Populus nigra leaves in pET-32a, N-terminal His-tag, E. coli BL21(DE3) pLysS
T2 sequence (A0A858E4Y6 1-316): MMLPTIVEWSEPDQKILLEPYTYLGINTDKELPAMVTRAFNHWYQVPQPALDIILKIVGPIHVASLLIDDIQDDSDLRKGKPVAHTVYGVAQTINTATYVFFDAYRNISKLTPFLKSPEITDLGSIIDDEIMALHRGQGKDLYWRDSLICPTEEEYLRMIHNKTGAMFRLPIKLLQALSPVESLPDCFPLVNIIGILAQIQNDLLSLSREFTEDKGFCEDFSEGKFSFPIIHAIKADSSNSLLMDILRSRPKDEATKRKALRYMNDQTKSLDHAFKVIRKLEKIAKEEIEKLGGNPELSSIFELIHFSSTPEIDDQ
Nature of the series: in vitro terpene synthase assay, SPME GC-MS. To be noted: room temperature, 60 min. The format is biochemical.

For a further series, the target named is T3, MlpILTPS1 (Melampsora laricis-populina, UniProt A0A858E4Y8).
T3 construct: gene ILTPS1; full-length cDNA from infected Populus nigra leaves in pET-32a, N-terminal His-tag, E. coli BL21(DE3) pLysS
T3 sequence (A0A858E4Y8 1-324): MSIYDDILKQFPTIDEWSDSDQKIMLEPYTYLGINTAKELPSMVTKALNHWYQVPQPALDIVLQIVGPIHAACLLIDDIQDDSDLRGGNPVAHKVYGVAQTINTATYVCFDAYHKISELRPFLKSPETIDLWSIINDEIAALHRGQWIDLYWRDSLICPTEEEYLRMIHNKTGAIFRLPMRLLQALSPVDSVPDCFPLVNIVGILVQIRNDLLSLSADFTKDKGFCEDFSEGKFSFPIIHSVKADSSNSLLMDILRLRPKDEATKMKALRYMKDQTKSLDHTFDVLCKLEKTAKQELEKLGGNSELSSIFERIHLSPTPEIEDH
Kind of series: in vitro terpene synthase assay, SPME GC-MS. In kind it is biochemical. To be noted: room temperature, 60 min.

The target in a further series is T4, MliGGDPS (Melampsora lini, UniProt A0A858E6N7).
T4 construct: gene GGDPS; full-length synthesized cDNA in pET-32a, N-terminal His-tag, E. coli BL21(DE3) pLysS
T4 sequence (A0A858E6N7 1-365): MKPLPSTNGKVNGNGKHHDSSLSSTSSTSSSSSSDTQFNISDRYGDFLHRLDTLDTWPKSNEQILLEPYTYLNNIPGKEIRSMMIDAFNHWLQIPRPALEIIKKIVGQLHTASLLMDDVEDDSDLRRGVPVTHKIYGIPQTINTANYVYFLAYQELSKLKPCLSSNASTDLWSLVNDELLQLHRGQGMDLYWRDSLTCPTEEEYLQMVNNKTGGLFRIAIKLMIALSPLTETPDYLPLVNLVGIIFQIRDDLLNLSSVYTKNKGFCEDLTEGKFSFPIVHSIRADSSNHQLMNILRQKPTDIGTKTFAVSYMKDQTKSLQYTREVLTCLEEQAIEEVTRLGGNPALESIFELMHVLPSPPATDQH
Nature of the series: radiochemical IDS assay, TLC. To be noted: MOPS pH 7.0, 10 mM MgCl2, 30 °C; co-substrate [1-14C]-IDP; product GGDP. The format is biochemical.

A further series deals with T5, MlpGGDPS (Melampsora laricis-populina, UniProt A0A858E7G0).
T5 construct: gene GGDPS; full-length cDNA from infected Populus nigra leaves in pET-32a, N-terminal His-tag, E. coli BL21(DE3) pLysS
T5 sequence (A0A858E7G0 1-364): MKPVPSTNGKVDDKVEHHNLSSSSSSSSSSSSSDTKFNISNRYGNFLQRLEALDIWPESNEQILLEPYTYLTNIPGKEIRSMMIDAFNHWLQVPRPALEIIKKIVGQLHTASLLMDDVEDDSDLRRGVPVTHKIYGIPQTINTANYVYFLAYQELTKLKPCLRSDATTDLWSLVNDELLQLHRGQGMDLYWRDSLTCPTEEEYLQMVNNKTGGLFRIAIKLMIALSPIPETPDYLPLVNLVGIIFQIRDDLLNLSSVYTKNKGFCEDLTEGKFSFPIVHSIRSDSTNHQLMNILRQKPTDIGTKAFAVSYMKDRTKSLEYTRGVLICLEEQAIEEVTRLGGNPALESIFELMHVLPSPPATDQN
Nature of the series: radiochemical IDS assay, TLC. The format is biochemical. As to conditions: MOPS pH 7.0, 10 mM MgCl2, 30 °C; co-substrate [1-14C]-IDP; product GGDP.

Substrate in series [1]: CC(C)=CCC/C(C)=C/CC/C(C)=C/CO[P@@](=O)(O)OP(=O)(O)O
Nature of the series: radiochemical terpene synthase assay, hexane extraction. The format is biochemical, Melampsora lini. As to conditions: MOPSO pH 7.0, 10 mM MgCl2, 0.05 mM MnCl2, room temperature, labelled compound. Here is the method:
radiochemical terpene synthase assay, hexane extraction on MliILTPS3 | the apparent Km values of MliILTPS2 and MliILTPS3 using FDP as substrate were determined

Substrate in series [2]: CC(C)=CCC/C(C)=C/CC/C(C)=C/CO[P@@](=O)(O)OP(=O)(O)O
Described as above. As to conditions: MOPSO pH 7.0, 10 mM MgCl2, 0.05 mM MnCl2, room temperature, labelled compound. The format is biochemical, Melampsora lini. Here is the method:
radiochemical terpene synthase assay, hexane extraction on MliILTPS2 | the apparent Km values of MliILTPS2 and MliILTPS3 using FDP as substrate were determined
This is another data set of the same source.

As for `CC(C)=CCC/C(C)=C/COP(=O)(O)OP(=O)(O)O` [GDP], the “in vitro terpene synthase assay, SPME GC-MS” value on MliILTPS1 (product linalool) is “both MliILTPS1 and MliILTPS3 converted GDP to linalool”; on MlpILTPS2 (product linalool), “In contrast, MlpILTPS2 produced only linalool”; on MlpILTPS1 (products (E)-beta-ocimene (major), linalool (minor)), “When GDP was provided as a substrate, MlpILTPS1 produced (E)-β-ocimene as a major product”.
For the molecule `CC(C)=CCC/C(C)=C/CC/C(C)=C/COP(=O)(O)OP(=O)(O)O` [FDP], the “in vitro terpene synthase assay, SPME GC-MS” value at MliILTPS1 (product (E)-nerolidol) was “both MliILTPS1 and MliILTPS3 converted FDP to (E)-nerolidol”; at MlpILTPS2 (product (E)-nerolidol) it was “MlpILTPS2 catalyzed the formation of (E)-nerolidol”; on MlpILTPS1 (product (E,E)-alpha-farnesene) it was “using FDP as substrate, MlpILTPS1 produced (E,E)-α-farnesene”. Moreover, the “radiochemical IDS assay, TLC” value on MliGGDPS is “MliGGDPS was active with DMADP, GDP, and FDP to produce GGDP”; at MlpGGDPS, “MlpGGDPS catalyzed the formation of GGDP using either DMADP, GDP, or FDP”.

B1: MliILTPS3 (Melampsora lini) (protein)
chain: MSIYDDIFKQFPMIDEWSDSDEKILVEPYTYLGINTAKELPSMVTKAFNHWYQVPQPALDIILQIIGPIHAASLLLDDIQDDSDLRGGNPVAHKVYGVAQTINTATYVCFDAYHKVSQLTPFLKSPETTDLWSIINDEIAALHRGQGIELYWRDSLMCPTEEEYLRMIHNKTGAIFRLPIKLLQALSSVDSPPDCFPLLNIVGILFQIQNDISSLSPDFTKDKGFCEDFSEGKFSFPIIHSVKADSSNSLLMDILRLRPKDEATKRKALRFMKDQTKSLDHTFHVLCKLKKTAQEELEKLGGNSELSSILERIQVSPTPEIEDR
notes: full-length synthesized cDNA in pET-32a, N-terminal His-tag, E. coli BL21(DE3) pLysS
A word on the Km: it is the substrate concentration at which the rate is half of its maximum. Broadly, the kcat is the maximal rate divided by the concentration of active sites. Take B1: in series [1], the Km turned out to be 1.6 ± 0.2 µM and the kcat is 0.05 ± 0.004 s⁻¹.

B2: MliILTPS2 (Melampsora lini) (protein)
chain: MSIYDDIFKQFPTIDEWSESNEKIMLEPYTHLGINTAKELPSMVTKAFNHWYQVPQPALDIILQIVGPIHAACLLIDDIQDDSDLRGGNPVAHKVYGVAQTINTATYVCFDAYHKISKLTPFSKSPETTDLWSIINDEIAALHRGQWIDLYWRDSLICPTEEEYLRMIHNKTGAIFRLPIKLLQALSPVDSPPDCFPLVNVVGILVQIRNDLLSLSPDFTKDKGFCEDFSEGKFSFPIIHSVKADSSNSLLIDILRLRPKDEPTKRKALRYMKDQTKSLDHTFDVLCKLEKTAKEELEKLGGNSELSSILELIQVSPIPEIADR
notes: as for B1
On to B2, for which, in series [2], the Km was found to be 1.9 ± 0.3 µM and the kcat came out at 0.01 ± 0.001 s⁻¹.

The values are drawn from article PMC7484799, “Evolution of isoprenyl diphosphate synthase-like terpene synthases in fungi” (Scientific Reports, 2020).
